Results reported in publication PMC5118696, “Identification of inhibitors that dually target the new permeability pathway and dihydroorotate dehydrogenase in the blood stage of Plasmodium falciparum” (Scientific Reports, 2016).
Read-outs that look alike come from different tables or passages of the source.

Experiments:
[1] = system: Hyp1-NLuc Plasmodium falciparum-infected erythrocytes (new permeability pathway, NPP); experiment: microbe, parasite or virus in culture; conditions: Erythrocyte, 0.33 h, read-out: Mean RLU at 28 min (As % of DMSO control)
[2] = system: Hyp1-NLuc Plasmodium falciparum-infected erythrocytes (new permeability pathway, NPP); experiment: microbe, parasite or virus in culture; conditions: Erythrocyte, 0.33 h, read-out: % of control remaining

Row | SMILES | activity at 2 µM [1] [%] | activity at 2 µM [2] [%]
1 | COc1ccc2sc(N(Cc3cccnc3)C(=O)c3ccc(C#N)cc3)nc2c1 [MMV001239] | 92.1 | 64.1
2 | CN(C)CCCNCc1ccc(-c2ccc(F)c(Cl)c2)o1 [MMV020505] | 105 | 106
3 | CC1CC(C)CN(C(=O)c2ccc(Cl)cc2Cl)C1 (stereo not shown) [MMV001344] | 106 | 107
4 | Cc1nc2ccccc2c(O)c1CC=C(Cl)Cl [MMV665994] | 96.6 | 101
5 | Clc1ccc2c(N3CCCC3)ccnc2c1 [MMV007363] | 114 | 115
6 | COc1ccc(C2NCCc3c2[nH]c2ccccc32)cc1CN1CCN(c2ccc(F)cc2)CC1 (stereo not shown) [MMV019690] | 106 | 113
7 | COc1ccc(-c2cn3c(C(=O)Nc4ccccc4Cl)c(-c4ccccc4)c4c3n2CCCC4)cc1 [MMV020403] | 103 | 106
8 | COc1cc(OC)c(N(C)C(=O)c2cc3c(s2)-c2ccccc2S(=O)(=O)C3)cc1Cl [MMV006427] | 105 | 104
9 | COc1cccc(C(=O)NC(c2ccc(C)cc2)c2cc(Cl)c3cccnc3c2O)c1 (stereo not shown) [MMV665969] | 101 | 106
10 | CCOC(=O)C1(Cc2ccccc2)CCN(Cc2cccc(OC)c2O)CC1 [MMV666109] | 93.9 | 97.9
11 | COc1ccc(C2Sc3ccccc3N=C3C2=C(O)c2ccccc23)cc1 (stereo not shown) [MMV000563] | 101 | 106
12 | CN(C)c1ccc(C(O)(c2ccc(N(C)C)cc2)c2ccc(N(C)C)cc2)cc1 [MMV665941] | 98.3 | 96.5
13 | O=C(Nc1ccc(Cl)cc1)N1CCN(c2ccc3nncn3n2)CC1 [MMV665917] | 53.8 | 27.3
14 | CCOc1ccc(-c2nonc2NC(=O)c2cccc(C)c2)cc1OCC [MMV665805] | 106 | 107
15 | COc1ccc2c(=O)cc(C(Cl)(Cl)Cl)oc2c1 [MMV665820] | 105 | 102
16 | Oc1c2c(nc3cc(-c4ccccc4)nn13)CCCC2 [MMV008270] | 100 | 56.9
17 | Cc1ccc(N2C(=O)C3C(C2=O)C2(c4ccccc4)C(=O)C3(c3ccccc3)C(c3ccccc3)=C2c2ccccc2)cc1 (stereo not shown) [MMV666062] | 106 | 97.6
18 | CCC(=O)Nc1nnc(Cc2ccc(OC)c(OC)c2)s1 [MMV020942] | 102 | 102
19 | Cc1cc(N2CCN(C3CCCC3)CC2)n2c(nc3ccccc32)c1C#N [MMV006706] | 118 | 117
20 | COc1ccc2nc(C)cc(Nc3cccc(O)c3)c2c1 [MMV008212] | 106 | 107
21 | O=C(c1ccccc1F)N(Cc1ccc(Cl)cc1)c1ccccn1 [MMV665899] | 102 | 106
22 | COc1cc(CNCCc2ccc(Cl)cc2)cc(OC)c1O [MMV128432] | 97.7 | 97.8
23 | O=C(Nc1nc(-c2ccccn2)cs1)c1ccccc1Br [MMV665909] | 95.5 | 103
24 | COc1ccccc1CNC(=O)C1c2ccccc2C(=O)N(CC(C)C)C1c1cccs1 (stereo not shown) [MMV000648] | 108 | 105
25 | O=C(Nc1ccc(F)c(Cl)c1)Nc1ccc(Cl)c(Cl)c1 [MMV665953] | 108 | 125
26 | CCc1c(C)c(=N)c2ccccc2n1C [MMV006278] | 98.8 | 99.6
27 | O=C1CC(O)(C(F)(F)C(F)(F)F)Oc2ccccc21 (stereo not shown) [MMV000972] | 90.2 | 82.2
28 | CCn1c(SCC(=O)Nc2cc(C(F)(F)F)ccc2Cl)nc2ccccc2c1=O [MMV666103] | 100 | 113
29 | O=C(CCc1ccccc1)c1ccccc1OCC(O)CN1CCCCC1 (stereo not shown) [MMV009015] | 107 | 106
